The values below come from US8093279B2, “Compound” (priority 2005, dated 2012).

The target of one series is T1, steroid sulphatase (STS) (Homo sapiens, UniProt P08842).
T1 construct: host or cells: JEG3 choriocarcinoma cells (intact monolayers)
T1 sequence (P08842 22-583): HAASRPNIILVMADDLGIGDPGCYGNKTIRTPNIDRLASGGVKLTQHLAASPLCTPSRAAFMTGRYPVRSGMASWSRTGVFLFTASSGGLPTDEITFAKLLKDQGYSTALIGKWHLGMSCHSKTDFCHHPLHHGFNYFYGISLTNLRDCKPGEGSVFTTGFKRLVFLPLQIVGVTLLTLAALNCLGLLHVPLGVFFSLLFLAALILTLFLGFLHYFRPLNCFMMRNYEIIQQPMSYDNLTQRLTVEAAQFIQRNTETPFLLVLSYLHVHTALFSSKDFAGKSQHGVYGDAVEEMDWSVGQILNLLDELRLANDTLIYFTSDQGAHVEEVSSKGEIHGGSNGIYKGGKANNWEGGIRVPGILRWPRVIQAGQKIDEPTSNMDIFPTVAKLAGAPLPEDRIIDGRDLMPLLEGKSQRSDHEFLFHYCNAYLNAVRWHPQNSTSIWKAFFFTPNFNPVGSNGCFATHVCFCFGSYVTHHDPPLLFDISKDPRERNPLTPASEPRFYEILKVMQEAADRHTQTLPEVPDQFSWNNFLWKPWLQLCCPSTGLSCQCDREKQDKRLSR
In words: Inhibition of steroid sulphatase activity in intact JEG3 cells (Protocol 1). The class given is cell-based. The conditions noted are these: for pIC50: JEG3 cells. On the procedure: Inhibition of Steroid Sulphatase Activity in JEG3 cells
Steroid sulphatase activity is measured in vitro using intact JEG3 choriocarcinoma cells. This cell line may be used to study the control of human breast cancer cell growth.
Cells are maintained in Minimal Essential Medium (MEM) (Flow Laboratories, Irvine, Scotland) containing 20 mM HEPES, 5% foetal bovine serum, 2 mM glutamine, non-essential amino acids and 0.075% sodium bicarbonate. Up to 30 replicate 25 cm^2 tissue culture flasks are seeded with approximately 1×10^5 cells/flask using the above medium. Cells are grown to 80% confluency and the medium is changed every third day.
Intact monolayers of JEG3 cells in triplicate 25 cm^2 tissue culture flasks are washed with Earle's Balanced Salt Solution (EBSS from ICN Flow, High Wycombe, U.K.) and incubated for 3-4 hours at 37° C. with 5 pmol (7×10^5 dpm) [6, 7-3H]oestrone-3-sulphate (specific activity 60 Ci/mmol from New England Nuclear, Boston, Mass., U.S.A.) in serum-free MEM (2.5 ml) together with oestrone-3-sulphamate (11 concentrations: 0; 1fM; 0.01 pM; 0.1 pM; 1 pM; 0.01 nM; 0.1 nM; 1 nM; […]). After incubation each flask is cooled and the medium (1 ml) is pipetted into separate tubes containing [14C]oestrone (7×10^3 dpm) (specific activity 97 Ci/mmol from Amersham International Radiochemical Centre, Amersham, U.K.). The mixture is shaken thoroughly for 30 seconds with toluene (5 ml). Experiments have shown that >90% [14C]oestrone and <0.1% [3H]oestrone-3-sulphate is removed from the aqueous phase by this treatment. A portion (2 ml) of the organic phase is removed, evaporated and the 3H and 14C content of the residue determined by scintillation spectrometry. The mass of oestrone-3-sulphate hydrolysed was calculated from the 3H counts obtained (corrected for the volumes of the medium and organic phase used, and for recovery of [14C]oestrone added) and the specific activity of the substrate. Each batch of experiments includes incubations of microsomes prepared from a sulphatase-positive human placenta (positive control) and flasks without cells (to assess apparent non-enzymatic hydrolysis of the substrate). The number of cell nuclei per flask is determined using a Coulter Counter after treating the cell monolayers with Zaponin. One flask in each batch is used to assess cell membrane status and viability using the Trypan Blue exclusion method (Phillips, H. J. (1973) In: Tissue culture and applications, [eds: Kruse, D. F. & Patterson, M. K.]; pp. 406-408; Academic Press, New York).
Results for steroid sulphatase activity are expressed as the mean±1 S.D. of the total product (oestrone+oestradiol) formed during the incubation period (3-4 hours) calculated for […] and, for values showing statistical significance, as a percentage reduction (inhibition) over incubations containing no oestrone-3-sulphamate. Unpaired Student's t-test was used to test the statistical significance of results.
(§1) A number of compounds were tested for aromatase and steroid sulphatase inhibition in accordance with the above Protocols 1 and 6.

Another series addresses T2, Aromatase (Homo sapiens, UniProt P11511).
T2 construct: host or cells: JEG3 choriocarcinoma cells (intact monolayers)
T2 sequence (P11511 1-503): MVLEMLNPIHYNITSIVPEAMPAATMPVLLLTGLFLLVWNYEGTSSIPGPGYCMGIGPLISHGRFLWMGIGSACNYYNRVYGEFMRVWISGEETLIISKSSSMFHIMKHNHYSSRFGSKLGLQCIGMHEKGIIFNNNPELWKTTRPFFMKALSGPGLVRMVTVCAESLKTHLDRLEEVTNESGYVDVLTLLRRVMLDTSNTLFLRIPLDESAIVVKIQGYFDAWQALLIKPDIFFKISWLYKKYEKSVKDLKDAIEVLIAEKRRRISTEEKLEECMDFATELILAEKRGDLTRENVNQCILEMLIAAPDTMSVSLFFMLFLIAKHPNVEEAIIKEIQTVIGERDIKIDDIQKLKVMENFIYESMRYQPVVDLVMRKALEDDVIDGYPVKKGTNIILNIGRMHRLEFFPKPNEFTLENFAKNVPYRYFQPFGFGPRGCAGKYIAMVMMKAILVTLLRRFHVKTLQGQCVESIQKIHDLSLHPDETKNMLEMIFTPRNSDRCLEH
Nature of the series: Aromatase activity in JEG3 choriocarcinoma cells (Protocol 6). The class given is cell-based. The note with it: JEG3 cells. On the procedure:
Aromatase activity is measured in JEG3 choriocarcinoma cells, obtained from the ATCC.
During the aromatase reaction, ^3H2O is liberated which can be quantified using a liquid scintillation spectrometer (Beckman-Coulter, High Wycombe, Bucks. UK). […] The number of cell nuclei per flask is determined using a Coulter Counter after treating the cell monolayers with Z aponin.
Unpaired Student's t test was used to test the statistical significance of results.
as §1

For another series, the system named is rats. The conditions noted are these: cited from earlier work.
In the next series the target is T3, steroid sulphatase (Homo sapiens, UniProt P08842).
T3 sequence (P08842 22-583): T1 sequence (P08842 22-583)
The conditions noted are these: cited from earlier work.

The conditions of series [1]: cited from earlier work.
In the next series the target is T4, E1-STS (Homo sapiens, UniProt P08842).
T4 construct: host or cells: intact MCF-7 cells (endogenous enzyme)
T4 sequence (P08842 22-583): T1 sequence (P08842 22-583)
The note with it: at 0.1 nM; cited from earlier work.

pIC50: −log10 of the molar value.

The molecule `N#Cc1ccc(-c2ccc(OS(N)(=O)=O)cc2)cc1Cn1cncn1` [Compound 31, 3′-((1H-1,2,4-triazol-1-yl)methyl)-4′-cyanobiphenyl-4-yl sulfamate] yielded a melting point of 179 to 180 °C. The molecule also showed a pIC50 against steroid sulphatase (STS) of more than 6.00. Moreover, at Aromatase, the pIC50 is more than 6.00.

`N#Cc1cc(Cn2cncn2)cc(-c2ccc(OS(N)(=O)=O)c(Cl)c2)c1` [Compound 40, 3′-((1H-1,2,4-triazol-1-yl)methyl)-3-chloro-5′-cyanobiphenyl-4-yl sulfamate]: the pIC50 was more than 5.00 against steroid sulphatase (STS) and more than 6.00 at Aromatase.

`NS(=O)(=O)Oc1cccc(-c2cccc(Cn3cncn3)c2)c1` [compound 1848]: the negative-log IC50 (pIC50) on steroid sulphatase (STS) is more than 5.00; at Aromatase it was more than 6.00.

On to `N#Cc1ccc(-c2ccc(OS(N)(=O)=O)c(Cl)c2)cc1Cn1cncn1` [Compound 33, 3′-((1H-1,2,4-triazol-1-yl)methyl)-3-chloro-4′-cyanobiphenyl-4-yl sulfamate], for which the melting point lay in the range of 155 to 158 °C. Besides, the negative logarithm of the IC50 (pIC50) against steroid sulphatase (STS) is more than 6.00. For the same molecule, the pIC50 against Aromatase was more than 6.00.

Consider `CC(C)(C#N)c1cc(Cn2cncn2)cc(-c2ccc(OS(N)(=O)=O)c(Cl)c2)c1` [Compound 58, 3′-((1H-1,2,4-triazol-1-yl)methyl)-3-chloro-5′-(2-cyanopropan-2-yl)biphenyl-4-yl sulfamate], for which the melting point was in the range of 71 to 74 °C. Also, the “JEG3-cells STS, % at single concentration” value on steroid sulphatase (STS) (@ 10 μM) amounted to 68.2 ± 1.6% @ 10 μM. The molecule further showed a pIC50 at Aromatase of more than 6.00.

Take `NS(=O)(=O)Oc1ccc(SCc2cccc(Cn3cncn3)c2)cc1Cl` [compound 1979]: the pIC50 against steroid sulphatase (STS) and on Aromatase was more than 6.00 in each case.

Consider `COc1cc2c(cc1OS(N)(=O)=O)CC[C@@H]1[C@@H]2CC[C@]2(C)C(=O)CC[C@@H]12` [2-methoxyoestrone-3-O-sulphamate], for which the oestrogenicity entry in the series with rats (rat, in vivo) was “devoid of oestrogenicity”. The “potency as a steroid sulphatase inhibitor compared with EMATE” value on steroid sulphatase is “equipotent with EMATE”.

On to `N#Cc1ccc(Cn2cncn2)cc1-c1ccc(OS(N)(=O)=O)c(Cl)c1` [Compound 23, 5′-((1H-1,2,4-triazol-1-yl)methyl)-3-chloro-2′-cyanobiphenyl-4-yl sulfamate], for which the negative logarithm of the IC50 (pIC50) at steroid sulphatase (STS) was more than 6.00.

In the case of `NS(=O)(=O)Oc1ccc(-c2ccc(Cn3cncn3)cc2)cc1` [compound 1976], the pIC50 at steroid sulphatase (STS) and against Aromatase was more than 5.00 in each case.

In the case of `NS(=O)(=O)Oc1ccc(SCc2ccc(Cn3cncn3)cc2)cc1Cl` [compound 1980], the negative-log IC50 (pIC50) at steroid sulphatase (STS) and against Aromatase was more than 6.00 throughout.

Regarding `N#Cc1cc(Cn2cncn2)ccc1-c1ccc(OS(N)(=O)=O)cc1` [Compound 48, 4′-((1H-1,2,4-triazol-1-yl)methyl)-2′-cyanobiphenyl-4-yl sulfamate], the pIC50 on steroid sulphatase (STS) and against Aromatase was more than 6.00 each time.

Regarding `NS(=O)(=O)Oc1ccc(C#Cc2cccc(Cn3cncn3)c2)cc1Cl` [compound 2054], at steroid sulphatase (STS), the pIC50 is more than 6.00.

Take `C[C@]12CC[C@@H]3c4ccc(OS(=O)(=O)O)cc4CC[C@H]3[C@@H]1CCC2=O` [E1S, oestrone sulphate]: the half-life in blood in series [1] is 10 to 12 h.

As to `N#Cc1ccc(Cn2cncn2)cc1-c1ccc(OS(N)(=O)=O)cc1` [Compound 20, 5′-((1H-1,2,4-triazol-1-yl)methyl)-2′-cyanobiphenyl-4-yl sulfamate], the pIC50 on steroid sulphatase (STS) and on Aromatase was more than 6.00 in each case.

As to `NS(=O)(=O)Oc1ccc(-c2cccc(Cn3cncn3)c2)cc1Cl` [compound 1854], the pIC50 against steroid sulphatase (STS) and against Aromatase was more than 6.00 throughout.

On to `N#Cc1cc(Cn2cncn2)ccc1-c1ccc(OS(N)(=O)=O)c(Cl)c1` [Compound 50, 4′-((1H-1,2,4-triazol-1-yl)methyl)-3-chloro-2′-cyanobiphenyl-4-yl sulfamate], for which the pIC50 at steroid sulphatase (STS) and on Aromatase was more than 6.00 each time.

With `NS(=O)(=O)Oc1ccc(-c2cccc(Cn3cncn3)c2)cc1` [compound 1455], the pIC50 on steroid sulphatase (STS) is more than 5.00; against Aromatase it was more than 6.00.

With `CC12CCC3c4ccc(OS(N)(=O)=O)cc4CCC3C1CCC2=O` (stereo not drawn) [EMATE, oestrone-3-sulphamate], the “oral uterotrophic activity in rats relative to estradiol” value in the series on rats (oral, rats, versus estradiol) was 100 times. On E1-STS, the “inhibition of E1-STS activity in intact MCF-7 cells” value is reported as “more than 99%”.

By pIC50 is commonly meant the negative decadic logarithm of the IC50, by convention in mol/L. Lower therefore signals a large IC50. The term melting point denotes the temperature of the solid-liquid transition.
